Several values for one entry are separate records, joined by “and”; a condition that tells them apart may be missing. Identical values can stand only once. Like-named read-outs stand apart in the source and are kept apart here.
Key:
[1] = tested on: mice; test: Subcutaneous osmotic mini-pump administration in mated mice, implantation sites; assay type: in vivo
Protocol: Preliminary in vivo assessment of PIF-1 antagonist by using PIF1scr/amide was performed. […] Following the protocol below: (Dr Hoberman, Argus, Inc) PIF-1scr/amide was introduced two days after estrus to mice through an osmotic mini-pump (Alzet Model 2001; 1 ul/hr for 7 days) containing either 0.9% saline or 150 ug or 800 ug PIF-1scr/amide/day release in saline. The pumps were inserted subcutaneously under ketamine/xylazine anesthesia. Female mice were placed with male mice on the third day afternoon of the expected estrus. Four different groups 5 each were studied, low and high dose PIF-1scr/amide, saline control, and one group with PIF-1. Mating was confirmed by the presence of sperm in the vagina or a copulatory plug the next morning. Pregnancy (or lack thereof) was determined by sacrificing on day 10 after breeding and the uterine horns were examined for implantation sites by using Chicago Blue solution.
The group treated with PIF-1 160 ug/kg/day appeared to have increased number of implantation sites and this was associated with a higher rate of fetal survival compared to vehicle treated controls.

[2] = tested on: CD2; test: CD2 expression in PBMC (flow cytometry, CD2MAb-FITC); assay type: cell-based; details: PBMC exposed 3 days
[3] = tested on: epithelial cells; test: PIF binding to endometrial epithelial cells (MaBCD2 staining); parameters: species or system human; details: compared to non-relevant IgG
Protocol: In addition, to compare the recovery of β-3 integrin expression with PIF effects described after cultured hEEC in a free-fetal bovine serum (FBS) medium some cells were cultured again in FBS-medium. […] PIF binding to epithelial cells was also examined. Binding was examined using MaBCD2 staining.

[4] = tested on: 46 different kinases
Protocol: The effect of PIF-1 on kinases related to metabolic function was examined. The methodology for testing PIF activity on MEK1 kinase is described below, but it is applicable for all kinases tested: 50 nM Tris pH, 0.1 mM EGTA 0.10% b-mercaptoethanol 1 mg/mg BSA PIF-1 15 was dissolved in deionised water at 5 nM-5 uM range of concentrations. […] (SEQ ID NO: 23), 10 mM Mg Acetate and [gamma-33P-ATP] 500 cpm/pmol. Reaction initiated with addition of MgATP. After 40 minutes incubation at room temperature, reaction stopped by the addition of 5 ul of a 3% phosphoric acid solution. 10 ul of the reaction is spotted onto a P30 filtermat and washed three times for 5 min in 75 mM phosphoric acid and once in methanol prior to drying and scintillation counting.
The effects of PIF on 46 different kinases (listed below in Table 5) related to metabolic function were tested.

[5] = tested on: PBMC; test: Cytokine release (ELISA) and intracellular cytokine staining in stimulated PBMC; assay type: cell-based, human
Protocol: FIG. 2. sPIF-1(15) (SEQ ID NO:13) increases the percentage of PBMC that contain TH2 type cytokines (IL10, IL 4), while scrPIF-1(15) (SEQ ID NO: 5) has a TH1 bias (INFgamma). Isolated PBMC were stimulated by PHA (1 ug/ml) and cultured 2-4 days with sPIF-1(15) (SEQ ID NO:13) or scrPIF-1(15) (SEQ ID NO:5). 30 nM. PBMC cytokines content was determined by specific staining using flow cytometry. Effect of PIF-1 on cellular content of cytokines of PBMC was examined up to 96 hours and a time dependent pattern emerged, not replicated by scrambled or irrelevant peptide. Measurements were carried out in two separate stages. At the cellular induction/synthetic level, lymphocytes were cultured in the presence of PHA for various periods with or without PIF-1 then processed for intracellular immunostaining (activation by PMA plus ionomycin in the presence of monenisn and berfeldin, followed by permeabilization and immunostaining) for the detection of nascent cytokines.
Human PBMC were isolated and cultured for 2-4 days in AIM-V medium containing 0 to 200 nM of sPIF-115 (SEQ ID NO:13) or scrPIF-115 (SEQ ID NO:5). The following proliferation-activating agents were used: anti-CD3 antibody (10 μg/ml solution) bound on the plate wells in the presence or absence of IL-2 at 10 μg/ml; phytohemmaglutinin (PHA) at 4 μg/ml. The effects of sPIF-115 (SEQ ID NO:13) or scrPIF-115 (SEQ ID NO:5) peptides were also determined by the mixed lymphocyte reaction (MLR) after 3 days in heterologous cultures of PBMC with cells previously treated with mitomycin C (100 μg/ml for 4 h). Cell proliferation was determined by tritiated thymidine incorporation (16 h) of 72-h culture. Cytokine release (IL-4, IL-10, IFN-γ and TNF-α) into culture supernatants was determined at 72 h of culture by ELISA (R&D System).

[6] = tested on: PBMC; details: PHA +
Protocol: sPIF-115 (SEQ ID NO:13) effect was tested on a patient with over 14 miscarriages and no live birth. Their immune cells were examined in the non-pregnant state, by exposure to sPIF-115 (SEQ ID NO:13) using PBMC preparations. Induction of PIF receptor expression, and binding to lymphocytes were used to characterize the treated cells.

[7] = tested on: donor lymphocytes and platelets; assay type: cell-based, human
Excerpt: The PIF assay, as disclosed in U.S. Pat. No. 5,646,003 to Barnea et al., entitled “Preimplantation Factor” issued Jul. 9, 1997, and in U.S. Pat. No. 5,981,198 to Barnea et al., entitled “Preimplantation Factor” granted Nov. 9, 1999, the disclosures of which are incorporated herein by reference in their entirety, may be used to measure the response of the immune system to pregnancy specific preimplantation factors. […] Lymphocyte-platelet rosettes result from the interaction of the T cell surface protein CD2 with its ligand CD58 expressed on the platelet membrane. Anti-CD2, by binding to the CD2 antigen on the T cells, inhibits their interaction with platelets.
Human PBMC were isolated by the Ficoll method. FITC-labeled nPIF-115 (SEQ ID NO: 1) and (FITC)-labeled scrPIF-1 (SEQ ID NO:5) and match-size irrelevant peptide (FITC)-labeled negative controls negPIF-1(15) (SEQ ID NO:11), were dissolved in PBS at concentrations ranging from 0.75 to 48.19 μM, and were incubated with 500,000 lymphocytes for 1 h at room temperature. The cells were washed 6 times with PBS and resuspended in 500 μl of the same buffer. T-cells and monocytes identification was performed in independent experiments by incubation with anti-CD3 and anti-CD14 antibody-phycoerithryn (PE) labeled. nPIF-115 (SEQ ID NO: 1) binding to PBMC was determined by flow cytometry. In addition, rosettes formed by T cell-platelets were detected by flow cytometry using anti-CD3 antibody-PE and anti-CD41a antibody-FITC (all antibodies were from Pharmingen Inc.).

[8] = tested on: T cells
Protocol: We have examined using calcium mobilization in T cells which is central to T-Cell activation initiated by antigen presentation to the T-Cell Receptor (TCR) antigen whether PIF-1 acts through mobilization of Ca++flux. Activation of T-cells was carried out by using phorbal ester (PMA) and Ca2+ ionomycin both of which synergize through two different signaling pathways the former through Protein Kinase C, while the later through Tyrosine Kinases. […] We have also looked at Tcell activation using PHA.
Calcium channel analysis method: 2E6 freshly isolated PBMC in RPMI1640+10% FBS (HI) and equilibrated for 24 hours. Cells are loaded with a proprietary dye that fluorescence when bound with Ca++. PIF-11 or 50 nM as well as 1-50 nM scrPIF-1 were added prior to inducing the cells with PMA/ionomycin or PHA20 ug/ml or vehicle 0.005% DMSO. PIF-1 treated cells are loaded into the Flexstation and the inducer is added robotically with a liquid handler. At a precise time fluorescence monitoring commences. CA++ mobilization involves initially at least sequestered within organelles to the cytoplasm where it binds with the dye and produces a fluorescent signal.

[9] = 160 ug/kg/day, compared to vehicle treated controls

## MVRIKPGSANKPSDD [sPIF-1(15)]
[1]; [9]
  number of implantation sites: increased
  rate of fetal survival: higher rate
[1]; all tested groups
  effect on maternal body weights: no effect
[1]; early pregnancy
  effect on mouse fetuses number: no significant effect
[1]; pregnant mice
  toxic effects following administration in early pregnancy: no toxic effects
[2]
  increase in CD2 expression: 170-200%
[3]
  binding to epithelial cells: highest binding
[4]
  interaction with kinases related to metabolic function: does not interact with any of kinases
[5]; PHA 1 ug/ml, 2-4 days, 30 nM, flow cytometry
  percentage of PBMC that contain TH2 type cytokines (IL10, IL 4): increases
[5]; one day after IL-10 increase
  IFN-γ decrease: 30%
[5]; starting at day 2, peaking at days 3-4
  increase in number of IL-10 secreting cells: 50-60%
[5]; stimulated PBMC
  increase of TH2/TH1 cytokine ratio in PBMC: more than five-fold
[5]; stimulated PBMC, 72 h, ELISA
  IFN-γ release in culture supernatants: significantly decreased
  IL-4 release: does not have a significant effect
  IL-10 release in culture supernatants: significantly increased
  TNF-α release: does not have a significant effect
[6]; Control specimen
  (PIF+/CD4+)/CD4+: 22.1
  (PIF+/CD4+)/CD4+ difference in parentheses: 0%
  (PIF+/CD8+)/CD8+: 24.5
  (PIF+/CD19+)/CD19+: 46.2
[6]; Patient specimen
  (PIF+/CD4+)/CD4+: 16.2
  (PIF+/CD8+)/CD8+: 16.3
  (PIF+/CD19+)/CD19+: 48.2
[6]; Patient vs control
  (PIF+/CD4+)/CD4+ difference in parentheses: −27%
  (PIF+/CD8+)/CD8+ difference in parentheses: −33%
[7]
  Increase in Rosette Formation: >370% and >288% and >208%
  increase in the number of rosettes in the presence of the anti-CD2 antibody: four-fold increase
[8]; PHA activated T cells
  PHA stimulation of Ca2+ influx: does not show any inhibition
[8]; PMA and ionomycin activated T-cells, 1 nM-50 uM
  Ca++ mobilization: did not affect
